Assay results reported in the NIST ThermoML archive (doi:10.1021/acs.jced.6b00790).

Experiment: mean ionic activity coefficient (dimensionless); mn = molality of the nth substance listed, in mol/kg
Details: 298.15 K, 100 kPa, Liquid, potentiometry

O=[N+]([O-])[O-].[Na+] [sodium nitrate] + O
Details | mean ionic activity coefficient
m1 = 0.01 | 0.893
m1 = 0.05 | 0.811
m1 = 0.1 | 0.766
m1 = 0.2001 | 0.697
m1 = 0.2999 | 0.663
m1 = 0.4 | 0.638
m1 = 0.5001 | 0.616
m1 = 0.5999 | 0.576
m1 = 0.7001 | 0.565
m1 = 0.7998 | 0.545
m1 = 0.9 | 0.518
m1 = 0.9999 | 0.502
